# Results as given in patent US10208059B2, “Heterocyclic modulators of HIF activity for treatment of disease” (Board of Regents, University of Texas System, priority 2012, dated 2019).
# “Also recorded” adds a separate entry of the source.
# Columns and labels:
# OCI-AML3 cells = assay: Acute myeloid leukemia cell viability; assay type: cell-based; conditions: various concentrations, 2 days, normalized to DMSO control
# Protocol: (§1) The OCI-AML3 cell line was treated with various concentrations of compound for 2 days and the percent of viable cells normalized to control cells treated with DMSO (FIG. 9). OCI-AML3 cells constitutively expressing luciferase were tail vein injected in NSG nude mice. 17 days after cell injection, luciferin was injected into animals and luciferase signal was measured using an IVIS imaging system to determine tumor burden and for randomization of subjects into study groups. On day 18, animals began receiving daily oral doses of vehicle or 10 mpk of the compound of Example 80 which continued throughout the study. On day 28, imaging was performed again to determine tumor burden (FIG. 10).
# NB-1 xenografts = assay: NB-1 xenograft model; assay type: in vivo; conditions: daily oral 10 mg/kg (b1183 says 40 mpk), CD-1 nude mice
# Protocol: To establish activity and provide in vivo proof of concept, NB-1 cells were implanted into CD-1 nude mice and treated with 40 mpk of the compound of Example 80 po or vehicle daily when tumors reached 400-500 mm^3. Tumor size was measured 3×/week using caliper measurements (FIG. 5).
# NB-1 cells = assay: Neuroblastoma cellular assay, cell numbers; assay type: cell-based; conditions: various concentrations
# Source text: (§2) NB-1, Gli56, and D423 cell lines are deleted for ENO-1 (GLI56 and D423) or PGD, which renders them with reduced glycolytic capacity (Muller, F. et al., Nature, 2012, 488, 337-42).
# [1] = test system: OCI-AML3 models in NSG mice; assay: Human leukemia model, OCI-AML3 in NSG mice; assay type: in vivo; conditions: 10 mg/kg daily oral
# Protocol: as §1
# 293T-HRE-GFP-luc cells = assay: Cell-based reporter assay for IC50 determinations; conditions: hypoxia 6 hrs (1% O2), luminescence, read-out: IC50 Classification
# Outline: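 IC50 comes from a four-parameter logistic fit of luminescence from HRE-GFP-luc 293T cells. Compounds (1:3 series, 1:50 medium dilution) were preincubated 30 min under normoxia, followed by 6 h at 1% O2, 5% CO2, 37 °C, before Steadylite luciferase detection.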
# TMD8 cells = assay: Diffuse large B-cell lymphoma (DLBCL) assay, viable cells; assay type: cell-based; conditions: varying concentrations, 7 days, Guava ViaCount
# Protocol: Diffuse Large B-Cell Lymphoma (DLBCL) Assay
# Equal number of TMD8 cells were plated and treated with varying concentrations of the compound of Example 80 for 7 days. Percent of viable cells was determined using Guava ViaCount reagents (EMD Millipore cat #4000-0040) that contains proprietary dyes that enable the determination of the number of live and dead cells in a sample (FIG. 1).
# D423 cells = assay: Glioblastoma cellular assay, cell numbers; assay type: cell-based; conditions: various concentrations
# Source text: as §2
# Gli56 cells = assay: Glioblastoma cellular assay, cell numbers; assay type: cell-based; conditions: various concentrations
# Source text: as §2
smiles,measurement,setting,value
"Cc1nc(-c2nc(-c3ccc(OC(F)(F)F)cc3)no2)nn1Cc1cccc(N2CCC(S(C)(=O)=O)CC2)c1 [Example 80, 4-Methanesulfonyl-1-{3-[(5-methyl-3-{3-[4-(trifluoromethoxy)phenyl]-1,2,4-oxadiazol-5-yl}-1H-1,2,4-triazol-1-yl)methyl]phenyl}piperidine]",number of viable OCI-AML3 cells,OCI-AML3 cells,reduced number of viable cells
same,tumor growth of NB-1 xenografts,NB-1 xenografts,reduces the tumor growth
same,cell death in NB-1 cells,NB-1 cells,readily apparent
same,number of viable NB-1 cells,NB-1 cells,significantly reduced; also recorded: reduced number of viable cells
same,disease burden (tumor burden) by IVIS imaging,[1],reduces disease burden
same,survival,[1]; relative to vehicle,significantly increased their survival; also recorded: extends survival
same,IC50,293T-HRE-GFP-luc cells,< 0.1 µM
same,number/percent of viable TMD8 cells,TMD8 cells,respond robustly; also recorded: reduced number of viable cells
same,number of viable D423 cells,D423 cells,significantly reduced; also recorded: reduced number of viable cells
same,cell death in Gli56 cells,Gli56 cells,readily apparent
same,number of viable Gli56 cells,Gli56 cells,significantly reduced; also recorded: reduced number of viable cells
